Assay results reported in patent US20070179060A1, “6-(Poly-substituted aryl)-4-aminopicolinates and their use as herbicides” (priority 2006, published 2007).

Experiments:
[1] = tested on: lambsquarter (Chenopodium album); assay: Postemergence herbicidal activity; type: in vivo; settings: Chenopodium album, post-emergence, 336 h, post-emergent, 140 g ai/ha, after 14 days; read-out: % Control CHEAL
Summary of the method: (§1)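 Compounds were applied postemergence by track sprayer delivering 187 L/ha, using a mixed organic/aqueous carrier containing crop oil concentrate and surfactant; solvent-blank sprays served as controls. Test plants were at the first to second true leaf stage after 7-21 days' greenhouse growth, were sub-irrigated after treatment, and were evaluated by probit analysis.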

[2] = tested on: redroot pigweed (Amaranthus retroflexus); assay: Postemergence herbicidal activity; type: in vivo; settings: Amaranthus retroflexus, post-emergence, 336 h, post-emergent, 140 g ai/ha, after 14 days; read-out: % Control AMARE
Summary of the method: as §1

[3] = tested on: velvetleaf (Abutilon theophrasti); assay: Postemergence herbicidal activity; type: in vivo; settings: Abutilon theophrasti, post-emergence, 336 h, post-emergent, 140 g ai/ha, after 14 days; read-out: % Control ABUTH
Summary of the method: as §1

Cyperus difformis = assay: Herbicidal activity in transplanted paddy rice; type: in vivo; settings: paddy water application, after 3 weeks; for pest or weed control at 35 g/ha: 35 g ai/ha
Method: (§2) Weed seeds or nutlets of the desired test plant species were planted in puddled soil (mud) prepared by mixing a non-sterilized mineral soil (28 percent silt, 18 percent clay, and 54 percent sand, with a pH of about 7.3 to 7.8 and an organic matter content of about 1.0 percent) and water at a ratio of 100 kg of soil to 19 L of water. The prepared mud was dispensed in 250 mL aliquots into 480 mL non-perforated plastic pots with a surface area of 91.6 square centimeters leaving a headspace of 3 centimeters in each pot. […] Seedlings at the second or third leaf stage of growth were transplanted into 650 mL of mud contained in 960 mL non-perforated plastic pots with a surface area of 91.6 square centimeters 4 days prior to herbicide application. The paddy was created by filling the 3 centimeter headspace of the pots with water. When required to ensure good germination and healthy plants, a fungicide treatment and/or other chemical or physical treatment was applied. The plants were grown for 4-14 days in a greenhouse with an approximate 14 hour photoperiod which was maintained at about 29° C. during the day and 26° C. during the night. Nutrients were added as Osmocote (17:6:10, N:P:K+minor nutrients) at 2 g per pot. Water was added on a regular basis to maintain the paddy flood, and supplemental lighting was provided with overhead metal halide 1000-Watt lamps as necessary. The plants were employed for testing when they reached the second or third true leaf stage. A weighed amount, determined by the highest rate to be tested, of each test compound was placed in a 120 mL glass vial and was dissolved in 20 mL of acetone to obtain concentrated stock solutions. […] Application rates of ½×, ¼×, ⅛× and 1/16× of the high rate were obtained by injecting an appropriate amount of the stock solution into the aqueous layer of the paddy. Control plants were treated in the same manner with the solvent blank. The treated plants and control plants were placed in a greenhouse as described above and water was added as needed to maintain a paddy flood.

Echinochloa crus-galli = assay: Herbicidal activity in transplanted paddy rice; type: in vivo; settings: paddy water application, after 3 weeks; for pest or weed control at 35 g/ha: 35 g ai/ha
Method: as §2

Monochoria vaginalis = assay: Herbicidal activity in transplanted paddy rice; type: in vivo; settings: paddy water application, after 3 weeks; for pest or weed control at 35 g/ha: 35 g ai/ha
Method: as §2

Scirpus juncoides = assay: Herbicidal activity in transplanted paddy rice; type: in vivo; settings: paddy water application, after 3 weeks; for pest or weed control at 35 g/ha: 35 g ai/ha
Method: as §2

[4] = tested on: rice (Orysa sativa var. Japonica); assay: Herbicidal activity in transplanted paddy rice; type: in vivo; settings: transplant rice (crop), paddy water application, after 3 weeks; for pest or weed control at 35 g/ha: 35 g ai/ha
Method: as §2

Galium aparine = assay: Postemergence herbicidal activity in cereal crops; type: in vivo; settings: post-emergent, 17.5 g ai/ha, after 20-22 days; for pest or weed control at 17.5 g/ha: Galium aparine, post-emergence, 480 h, read-out: % Control GALAP
Summary of the method: (§3)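 Greenhouse plants (about 18 °C day/17 °C night, ~14 h photoperiod) were grown 7-36 days to the second or third true leaf stage. They were then sprayed overhead at 187 L/ha with compound in acetone/water/isopropanol/DMSO/crop oil/Triton X-77 carrier. Blank-sprayed plants served as controls, and watering was by sub-irrigation to avoid wash-off.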

Lamium purpureum = assay: Postemergence herbicidal activity in cereal crops; type: in vivo; settings: post-emergent, 17.5 g ai/ha, after 20-22 days; for pest or weed control at 17.5 g/ha: Lamium purpureum, post-emergence, 480 h, read-out: % Control LAMPU
Summary of the method: as §3

Papaver rhoeas = assay: Postemergence herbicidal activity in cereal crops; type: in vivo; settings: post-emergent, 17.5 g ai/ha, after 20-22 days; for pest or weed control at 17.5 g/ha: Papaver rhoeas, post-emergence, 480 h, read-out: % Control PAPRH
Summary of the method: as §3

Veronica persica = assay: Postemergence herbicidal activity in cereal crops; type: in vivo; settings: post-emergent, 17.5 g ai/ha, after 20-22 days; for pest or weed control at 17.5 g/ha: Veronica persica, post-emergence, 480 h, read-out: % Control VERPE
Summary of the method: as §3

barley (Hordeum vulare) = assay: Postemergence herbicidal activity in cereal crops; type: in vivo; settings: crop, post-emergent, 17.5 g ai/ha, after 20-22 days; for pest or weed control at 17.5 g/ha: Hordeum, post-emergence, 480 h, read-out: % Control HORVS
Summary of the method: as §3

[5] = tested on: wheat (Triticum aestivum); assay: Postemergence herbicidal activity in cereal crops; type: in vivo; settings: crop, post-emergent, 17.5 g ai/ha, after 20-22 days; for plant injury at 17.5 g/ha: Triticum aestivum, post-emergence, 480 h, read-out: % Control TRZAS
Summary of the method: as §3

[6] = Cyperus difformis, 504 h, read-out: % Control CYPDI
[7] = Echinochloa crus-galli, 504 h, read-out: % Control ECHCG
[8] = Pontederia vaginalis, 504 h, read-out: % Control MOOVA
[9] = Schoenoplectiella juncoides, 504 h, read-out: % Control SCPJU

| Structure (SMILES) | pest or weed control at 140 g/ha [1] [%] | pest or weed control at 140 g/ha [2] [%] | pest or weed control at 140 g/ha [3] [%] | pest or weed control at 35 g/ha (Cyperus difformis; [6]) [%] | pest or weed control at 35 g/ha (Echinochloa crus-galli; [7]) [%] | pest or weed control at 35 g/ha (Monochoria vaginalis; [8]) [%] | pest or weed control at 35 g/ha (Scirpus juncoides; [9]) [%] | pest or weed control at 35 g/ha ([4]; Oryza sativa, 504 h) [%] | pest or weed control at 17.5 g/ha (Galium aparine) [%] | pest or weed control at 17.5 g/ha (Lamium purpureum) [%] | pest or weed control at 17.5 g/ha (Papaver rhoeas) [%] | pest or weed control at 17.5 g/ha (Veronica persica) [%] | pest or weed control at 17.5 g/ha (barley (Hordeum vulare)) [%] | plant injury at 17.5 g/ha [5] [%] | other results |
| --- | --- | --- | --- | --- | --- | --- | --- | --- | --- | --- | --- | --- | --- | --- | --- |
| CCN(CC)c1c(Cl)ccc(-c2cc(N)c(Cl)c(C(=O)OC)n2)c1F [Compound 17, 4-Amino-3-chloro-6-[4-chloro-3-(diethylamino)-2-fluorophenyl]pyridine-2-carboxylic acid, methyl ester] | 100 | 100 | 100 | 100 | 70 | 100 | 90 | 0 | 80 | 100 | 100 | 99 | 0 | 0 | melting point: 120 to 121 °C |
| COC(=O)c1nc(-c2ccc(Cl)c(C(C)F)c2F)cc(N)c1Cl (centres unmarked) [Compound 61, 4-Amino-3-chloro-6-[4-chloro-2-fluoro-3-(1-fluoroethyl)phenyl]pyridine-2-carboxylic acid, methyl ester] | 100 | 100 | 100 | 100 | 80 | 100 | 100 | 0 | 85 | 99 | 90 | 75 | 0 | 10 |  |
| CCCCOC(=O)c1nc(-c2ccc(Br)c(OC)c2F)cc(N)c1Cl [Compound 90, 4-Amino-3-chloro-6-(4-bromo-2-fluoro-3-methoxyphenyl)pyridine-2-carboxylic acid, butyl ester] | 100 | 85 | 100 |  |  |  |  |  | 99 | 100 | 95 | 25 | 10 | 0 | pest or weed control at 17.5 g/ha (Cyperus difformis; Cyperus difformis, 504 h, 17.5 g ai/ha, read-out: % Control CYPDI): 100%; pest or weed control at 17.5 g/ha (Echinochloa crus-galli; Echinochloa crus-galli, 504 h, 17.5 g ai/ha, read-out: % Control ECHCG): 30%; pest or weed control at 17.5 g/ha (Monochoria vaginalis; Pontederia vaginalis, 504 h, 17.5 g ai/ha, read-out: % Control MOOVA): 100%; pest or weed control at 17.5 g/ha (Scirpus juncoides; Schoenoplectiella juncoides, 504 h, 17.5 g ai/ha, read-out: % Control SCPJU): 90%; pest or weed control at 17.5 g/ha ([4]; Oryza sativa, 504 h, 17.5 g ai/ha): 0% |
| CCCCOC(=O)c1nc(-c2ccc(Cl)c(C(C)F)c2F)cc(N)c1Cl (centres unmarked) [Compound 91, 4-Amino-3-chloro-6-[4-chloro-2-fluoro-3-(1-fluoroethyl)phenyl)pyridine-2-carboxylic acid, butyl ester] | 100 | 100 | 95 | 100 | 99 | 100 | 99 | 0 | 90 | 100 | 60 | 45 | 10 | 20 |  |
| CCN(CC)CC.COc1c(Cl)ccc(-c2cc(N)c(Cl)c(C(=O)O)n2)c1F [Compound 135, 4-amino-3-chloro-6-(4-chloro-2-fluoro-3-methoxyphenyl)-pyridine-2-carboxylic acid, triethyl amine salt] |  |  |  |  |  |  |  |  |  |  |  |  |  |  | % Control CYPDI (Cyperus difformis; 17.5 g ai/ha): 100%; % Control ECHCG (Echinochloa crus-galli; 17.5 g ai/ha): 30%; % Control MOOVA (Monochoria vaginalis; 17.5 g ai/ha): 100%; % Control SCPJU (Scirpus juncoides; 17.5 g ai/ha): 85%; % Control ORYSA ([4]; 17.5 g ai/ha): 10%; % Control GALAP (Galium aparine): 90%; % Control LAMPU (Lamium purpureum): 100%; % Control PAPRH (Papaver rhoeas): 100%; % Control VERPE (Veronica persica): 60%; % Control HORVS (barley (Hordeum vulare)): 0%; % Control TRZAS [5]: 0% |
